Here are results for twelve molecules from US20150250911A1, “MALODOR COUNTERACTING COMPOSITIONS” (GIVAUDAN, S.A., priority 2012, published 2015).

Assay [1] can be described thus: Sensory tests of compounds of formula (I) against 4 malodour compounds. Details: species or system human; key: ++++: no malodour present/strong reduction in malodour; +++: medium reduction in malodour; ++: weak malodour reduction; +: no change from control; ◯: worse than control. The conditions noted are these: reference malodour sample scored +. Here is the method: (§1) Sensory studies were performed in 120 ml Beetson jar. The test compounds were prepared in DEP (=Diethylphtalate) and pipetted onto a desized woven cotton piece of cloth placed at the bottom of a jar. Where two or more compounds were tested in the same jar, they were applied to separate areas of the cotton cloth. Prior the first assessment and between assessments, the jars were incubated at room temperature for one hour so that the headspace did reach equilibrium.
The same procedures as described in Example 5 have been followed.
The compounds of formula (I) were assessed by the trained volunteers against 4 malodour compounds, namely isovaleric acid, dimethyl disulfide, 2-methyl-3-mercaptobutan-1-ol, and 3-hydroxy-3-methyl hexanoic acid.
For the sensory test, participants were given the reference malodour sample and were told that this scored+on a scale as indicated below. They were then asked to assess and score the test jars in the specified sequence, with a 20 second gap between jars. The jars were given to the assessors blind in random permutations, with each volunteer smelling all permutations in duplicate.
The following score scale was used:
++++: no malodour present/strong reduction in malodour +++: medium reduction in malodour ++: weak malodour reduction +: no change from control ◯: worse than control

The nature of assay [2]: Sensory study in jars: malodour score by trained volunteers, DMDS malodour. Further details: species or system human. The settings on record: for Malodour Score (arith. means): 0-5 scale (4 = no change from control). Here is the method:
as §1
For the sensory test, participants were given a reference malodour sample (comprising the same ingredients as the jar with the malodour) and were told that this scored 4 on a 0-5 scale. They were then asked to assess and score three test jars on a 0-5 scale in the specified sequence, with a 20 second gap between jars. The jars were given to the assessors blind in random permutations, with each volunteer smelling all three permutations in duplicate.
(§2) 0: no malodour present 1: strong reduction in malodour 2 medium reduction in malodour 3: weak malodour reduction 4: no change from control 5: worse than control
(§3) Approx. 20 trained volunteers did participate in each study twice.

A short description of assay [3]: Sensory study in jars: malodour score by trained volunteers, IVA malodour. Further details: species or system human. The conditions noted are these: 0-5 scale (4 = no change from control); IVA (50 ul @ 0.06%) and 200 ul ORIVOL @0.1%. Here is the method:
as §1
(§4) Sensory studies were performed following the procedure described in Example 5. For the sensory test, participants were given a reference malodour sample (comprising the same ingredients as the jars with the maldodour) and were told that this scored 4 on a 0-5 scale. They were then asked to assess and score three test jars on a 0-5 scale in the specified sequence, with a 20 second gap between jars. The jars were given to the assessors blind in random permutations, with each volunteer smelling all three permutations in duplicate.
as §2, §3

Assay [4] in a line: Sensory study in jars: malodour score by trained volunteers, HMHA malodour. Further details: species or system human. The conditions noted are these: 0-5 scale (4 = no change from control); HMHA (50 ul @ 0.01%) and 200 ul ORIVOL @ 0.1%. Here is the method: as §1, §4, §2, §3
Assay [5] is described as follows: Sensory study in jars: malodour score by trained volunteers, MO malodour. Details: species or system human. Here is the method: as §1, §4, §2, §3

For `CC(CO)CC1CCC(C(C)C)CC1` (stereo not shown) [Compound 5.1], the Sensory score entry in assay [1] is “++++”.
`CC(C)C1CCCC(C(C)C(C)CO)C1` (stereo not shown) [Compound 5.2, 3-(3-isopropylcyclohexyl)-2-methylbutan-1-ol]: in assay [1], the Sensory score entry was “++++”.
Still for that read-out and setting: for `CC(CO)CC1CCCC(C(C)(C)C)C1` (stereo not shown) [Compound 5.3, 3-(3-tert-butylcyclohexyl)-2-methylpropan-1-ol] the value was “++++”.
With `CCC(C)(C)C1CCC(O)CC1` (stereo not shown) [Compound 5.4], the Sensory score entry in assay [1] was “++++”.
Take `OC1CCCCCCCCCCC1` [Compound 5.5]: the Sensory score entry in assay [1] is “+++”.
The same measure, in the same setting: for `CC(C)CC1CCC(CC(C)CO)CC1` (stereo not shown) [Compound 5.6, 3-(4-isobutylcyclohexyl)-2-methylpropan-1-ol] the value was “+++”.
`OC1CCC(C2CCCCC2)CC1` (stereo not shown) [Compound 5.7]: in assay [1], the Sensory score entry is “+++”.
Still for that read-out and setting: for `OC1CCCCCCCCCC1` [Compound 5.9] the value was “+++”; for `OC1CCCCCCCCCCCC1` [Compound 5.10], “++++”; for `CC1(O)CCCCCCCCCCCC1` [Compound 5.11], “++++”.
On the same count and under the same terms, in the case of `OC1CCCCCCCCCCCCCC1` [Compound 5.12] it was “++++”.
As to `CCC(C)(C)C1CCC(O)CC1` (stereo not shown) [ORIVOL, 4-(tert-pentyl)cyclohexanol], the “Malodour Score (arith. means)” value in assay [2] (DMDS 50 ul @ 0.5% and 200 ul ORIVOL @0.1%) worked out at 2.862; in assay [2] (DMDS (50 ul @ 0.06%) and 200 ul ORIVOL) it was 0.91; in assay [2] (DMDS (50 ul @ 0.5%) and 200 ul ORIVOL), 1.46; in assay [3], 2.733; in assay [4], 2.194; in assay [5] (0-5 scale (4 = no change from control), MO (50 ul @ 0.005%) and 200 ul ORIVOL @ 0.1%), 2.375. In addition, the “reduction on malodour perceivable by the human nose compared to the malodour taken alone” value in assay [2] (DMDS, Table 1, even at very low concentrations) was “significant reduction”; in assay [5] (MO, IVA and HMHA, Table 2) it was “significant reduction”.
